ChEMBL document CHEMBL1157539, “Thousands of chemical starting points for antimalarial lead identification” (Nature, 2010)

test system: Plasmodium falciparum; assay: GSK_TCMDC: Inhibition of Plasmodium falciparum 3D7 in whole erythrocytes, using parasite LDH activity as an index of growth.; format: functional, organism-based; details: Plasmodium falciparum, 3D7

Point of comparison: `Cc1cccc2nc(-c3ccc(-c4ccc(CNCc5cnn(-c6ccccc6)n5)cc4)s3)[nH]c12`, XC50 718 nM. Against it:
- CCN(CC)C(C)(C)CN(Cc1ccc(-c2ccc(C(F)(F)F)cc2)cc1)C(=O)Cn1c(CCc2cccc(F)c2F)nc(=O)c2ccccc21 — within 1.5-fold, 958 nM
- NCC1CCCN1Cc1cccc(-c2ccc(-c3nc4cc(C(F)(F)F)ccc4[nH]3)cc2)c1 (stereo unspecified) — within 1.5-fold, 778 nM
- CC1(C)CCC(C)(C)c2c1ccc(C1CCN(CCCCNC(=O)c3ccc(-c4ccc(C#N)cc4)cc3)CC1)c2OCC(N)=O — 1.7-fold lower, 421 nM
- Cc1cc(N2Cc3ccccc3C2)nc(Nc2cccc(C#N)c2)n1 — 4.2-fold lower, 172 nM
- COc1ccc(NC(=O)[C@H](Cc2ccccc2)Nc2cc(C)nc(Nc3ccccc3)n2)cc1 — within 1.5-fold, 1010 nM
- CCc1ccc(CN2CCCCC(NC(=O)c3cc(-c4ccccc4F)cs3)C2)cc1 (stereo unspecified) — 1.6-fold higher, 1160 nM
- COc1ccc2ncc(C#N)c(CCN3CCC(NCc4ccc5c(c4)NC(=O)CO5)CC3)c2c1 — within 1.5-fold, 588 nM
- Oc1cccc(Nc2ccnc3cc(-c4ccncc4)ccc23)c1 — within 1.5-fold, 1050 nM
- C[C@@H](CNc1ccnc(Nc2ccc3[nH]c(=O)[nH]c3c2)n1)c1ccccc1 — 1.5-fold higher, 1100 nM
- N#Cc1ccc(-c2ccc(C(=O)NCCCCN3CCC(c4cc(Br)c5c(c4OCC(N)=O)CCCC5)CC3)cc2)cc1 — within 1.5-fold, 797 nM
- O=C(Cn1nc(Br)nc1[N+](=O)[O-])NCC1CCCCC1 — 1.5-fold higher, 1100 nM
- O=C(/C=C/c1ccc(C(F)(F)F)cc1)NCCCCCN1CCCN(C(=O)Nc2ccc(Cl)c(C(F)(F)F)c2)CC1 — 3.6-fold lower, 202 nM
- CC[C@H](NC(=O)c1c(CCCN2CCN(c3ccccc3)CC2)c(-c2ccccc2)nc2cc(O)ccc12)c1ccccc1 — within 1.5-fold, 780 nM
- CN(C)CCCOc1c(C(C)(C)C)cc(-c2cc(C(C)(C)C)c(OCCCN(C)C)c(C(C)(C)C)c2)cc1C(C)(C)C — 2.7-fold lower, 270 nM
- Cc1cc2nc(-c3ccc(OCC(=O)NCc4ccc(C(C)(C)C)cc4)cc3)[nH]c2cc1C — within 1.5-fold, 1060 nM
- COc1cc(NC(=O)/C=C/c2cc(F)cc(F)c2F)cc(OCCN2CCC3(CC2)OCCO3)c1 — 2.7-fold lower, 269 nM
- Cc1ccccc1C1CCN(C2CCC(NC(=O)c3cc(-c4ccccc4)oc3C)CC2)CC1 (stereo unspecified) — within 1.5-fold, 1030 nM
- CC(C)(C)c1ccc(NC(=O)c2ccc(CN3CCCN(CC4CCCCC4)CC3)cc2)cc1 — within 1.5-fold, 542 nM
- Nc1nc2c(ncn2OC[C@H]2COP(=O)(O)CO2)c(=O)[nH]1 — within 1.5-fold, 569 nM
- COc1ccc2c(c1)CC(CNC[C@H](O)c1cccc(Cl)c1)CC2 (stereo partly specified) — within 1.5-fold, 988 nM
- Cn1nc(-c2ccc(NC(=O)Nc3cc(C(F)(F)F)ccc3F)c(F)c2)c2cnc(NCCCn3ccnc3)nc21 — within 1.5-fold, 736 nM
- CCC[C@@H]([C@@H](CC(C)C)C(=O)N[C@@H](CCCNc1nccc(C(F)(F)F)n1)C(=O)Nc1nccs1)N(O)C=O — 1.9-fold lower, 373 nM
- O=S(=O)(NCCN1CCCC1)c1ccc(-c2cccc(CNCc3ccc(F)cc3)c2)s1 — within 1.5-fold, 764 nM
- N#Cc1cccc(NC(=O)Nc2ccc(-c3csc(-c4nc5ccccc5[nH]4)c3)cc2)c1 — 4.7-fold lower, 152 nM
- COc1cc2nc(N3CCC(CNC(=O)c4ccc(-c5ccc(C(=O)N(C)C)cc5C)cc4)CC3)nc(N3CCN(C)CC3)c2cc1OC — 1.7-fold higher, 1230 nM
- CN1CCN(Cc2cccc(-c3cc4nccc(Nc5ccc(Oc6ccccc6)cc5)c4cc3Cl)c2)CC1 — within 1.5-fold, 728 nM
- COc1ccccc1-n1c(-c2ccc3ccccc3c2)csc1=NC(=O)c1ccccc1 — 3.5-fold lower, 204 nM
- CCCCCCN1CCC(NCc2cccc([N+](=O)[O-])c2)CC1 — within 1.5-fold, 668 nM
- COc1ccc(CNCc2ccc(-c3cccc(-c4nc5cc(F)ccc5[nH]4)c3)cc2)cc1 — 3.6-fold lower, 202 nM
- O=C(/C=C/c1ccc(C(F)(F)F)cc1)NCCCCCN1CCCN(C(=O)Nc2cccc(Cl)c2)CC1 — within 1.5-fold, 992 nM
- O=C(Nc1nc(-c2ccccn2)cs1)c1ccccc1COc1ccccc1 — within 1.5-fold, 972 nM
- Cc1cc(N[C@@H](Cc2ccccc2)C(=O)NCc2cccc(F)c2)nc(NCC2CCCCC2)n1 — within 1.5-fold, 855 nM
- OC(COc1ccccc1-c1nc2ccccc2o1)CN1CCCN(CCc2ccccc2)CC1 (stereo unspecified) — within 1.5-fold, 758 nM
- O=C(Nc1cccc(OC2CCN(Cc3ccsc3)CC2)c1)c1ccc(C(F)(F)F)cc1 — within 1.5-fold, 765 nM
- CC(=O)Nc1ccc(Nc2ncc([N+](=O)[O-])c(Nc3ccccc3C(N)=O)n2)cc1 — 2-fold lower, 366 nM
- Cc1c(C)c2c(c(C)c1O)CC[C@](C)(C(=O)N1CCC(CN3CCC(c4c[nH]c5ccccc45)CC3)CC1)O2 — the same, 718 nM
- CCCC1(NC[C@@H](O)[C@H](Cc2ccccc2)NC(=O)c2cc(NCC)cc(N3CCCCS3(=O)=O)c2)CCCCC1 — 2.9-fold lower, 247 nM
- Cc1ccc(/C=C/C(=O)NC2CCC(N3CCC(c4ccccc4C)CC3)CC2)cc1C (stereo unspecified) — within 1.5-fold, 809 nM
- COc1ccc2nccc([C@@H](O)CN3CCC(NCc4ccc5c(c4)N(C)C(=O)CO5)CC3)c2c1 — within 1.5-fold, 745 nM
- Oc1ccc(Cl)cc1CN1CCC2(CCCN(CC3CCC3)C2)C1 (stereo unspecified) — 2-fold lower, 368 nM
- Cc1ccc(Cn2ncc(N3CCC(N)CC3)c(Cl)c2=O)cc1NC(=O)Nc1ccc(-c2ccccc2)cc1 — within 1.5-fold, 917 nM
- CCOC(=O)C1=C(C)NC2=C(C(=O)CCC2)C1c1cn(Cc2ccc(Cl)cc2Cl)nc1-c1ccccc1 (stereo unspecified) — within 1.5-fold, 625 nM
- COc1ccc(C(=O)C2CC2CN2CC=C(c3c(C)[nH]c4ccccc34)CC2)cc1 (stereo unspecified) — 2.4-fold lower, 304 nM
- CCCCNC(=O)C(C)NC(=O)c1ccc(O)c(-c2ccc(Cl)c(Cl)c2)c1 (stereo unspecified) — within 1.5-fold, 823 nM
- CCN(CCCN1CCCCC1)c1cc(C)nc(Nc2ccc(C)cc2)n1 — 1.7-fold lower, 411 nM
- O=C(Nc1ccc2c(ccn2C2CCCN(Cc3cc(F)cc(F)c3F)CC2)c1)c1ccco1 (stereo unspecified) — within 1.5-fold, 651 nM
- COc1ccc(CCNCc2ccc3nc(N)c(C)cc3c2)cc1 — within 1.5-fold, 992 nM
- COc1c(C2CCN(CCCCNC(=O)c3ccc(C)c(-c4ccc(C(F)(F)F)cc4)c3)CC2)ccc2c1CCCC2 — within 1.5-fold, 883 nM
- CCOc1cc(C)ccc1N1CCN(CCCCNC(=O)c2ccc(NC(=O)c3ccc(Cl)cc3)cc2)CC1 — within 1.5-fold, 637 nM
- Cc1cccc2nc(C3CCN(CC4CCN(C(=O)/C=C/c5ccc(Cl)c(Cl)c5)CC4)CC3)[nH]c12 — within 1.5-fold, 485 nM
- O=C(NCCCCN1CCN(c2nsc3ccccc23)CC1)c1ccccc1C(=O)NCCCCN1CCN(c2nsc3ccccc23)CC1 — within 1.5-fold, 887 nM
- Nc1nc(N)c2c(ccc3c2ccn3Cc2ccccn2)n1 — 86-fold lower, 8.31 nM
- Cc1cc(=NN=Cc2ccccc2Cl)c2ccccc2[nH]1 — within 1.5-fold, 904 nM
- Cc1cc(F)ccc1-c1nc(NCCCNCCc2ccccc2)nc2c1ccc(=O)n2-c1c(F)cccc1F — 3.9-fold lower, 186 nM
- O=C(Nc1ccccc1)Nc1cccc(-c2ccc(-c3nc4cc(C(F)(F)F)ccc4[nH]3)cc2)c1 — 3.1-fold lower, 231 nM
- CCNc1cc(C(=O)N[C@@H](Cc2ccccc2)[C@H](O)CNC2(CC(C)C)CC2)cc(N2CCCCS2(=O)=O)c1 — within 1.5-fold, 1020 nM
- Clc1cc(Br)ccc1-c1ccc(CNCC2CCNCC2)o1 — 2.1-fold higher, 1510 nM
- O=C(NC1CCN(Cc2ccccc2)CC1)c1csc2nc(-c3ccc(Cl)cc3)cn12 — within 1.5-fold, 911 nM
- O=C(Nc1cccc(-c2ccc(CN3CCNCC3)cc2)c1)c1cccc(Cl)c1 — 1.7-fold higher, 1250 nM
- COc1ccc2nccc(N3CCC(SCCNCc4ccc5c(n4)NC(=O)CO5)C3)c2n1 (stereo unspecified) — within 1.5-fold, 801 nM
- CCc1ccc(C2CCN(CCCCNC(=O)c3ccc(-c4ccc(C#N)cc4)cc3)CC2)c(OCCO)c1 — within 1.5-fold, 938 nM
- COc1ccc(C2CCN(CCCCNC(=O)c3ccc(NC(=O)c4ccc(Cl)cc4)cc3)CC2)cc1Cl — within 1.5-fold, 843 nM
- O=C(Nc1ccccc1)N(Cc1ccccc1-c1cccc(CNCc2ccc3c(c2)OCO3)c1)C1CCN(Cc2ccccc2)CC1 — 6.6-fold lower, 108 nM
- Cc1nc2nc(N)nc(N)c2c(C)c1Cc1cccs1 — within 1.5-fold, 777 nM
- CC(C)(CNC(=O)C1CCN(CC2CCCCC2)CC1)c1nc(-c2ccc(Cl)c(O)c2)c(-c2ccncc2)[nH]1 — within 1.5-fold, 888 nM
